The record followed here is patent US10251865B2, “Method of activating regulatory T cells with alpha-2B adrenergic receptor agonists” (Allergan, Inc., priority 2010, dated 2019).

What all share (format): in vivo
Experiment [1] deals with regulatory T cells and immune cells in the CNS. Kind of experiment: Flow cytometry of immune cells and Treg cells in PLP-induced EAE mice. The text has this: The mouse model of experimental autoimmune encephalomyelitis (EAE) has been used extensively to understand the mechanisms underlying the immunopathogenesis of MS. […] Components of the immune system including T cells, macrophage, and antibodies are important contributors to myelin destruction in EAE mice. Further, inflammation also gives rise to multifocal regions demyelination culminating in clinical signs of neurologic dysfunction that include loss of tail tone, abnormal gait and partial-to-complete hind-limb paralysis. PLP-induced EAE model offers the ability to simultaneously investigate the pathogenic mechanisms of CNS inflammation and demyelination and MS-associated pain, a multi-targeted concept that we have optimized here at Allergan. Using sterile technique proteolipid protein myelin peptide (PLP) (139-159: […]) is mixed 1:1 with incomplete Freund's adjuvant (IFA) (Final concentration of 2 mg/ml PLP). 8-10 week old Female SJL mice (Taconic) are injected subcutaneously with 100 μl PLP/IFA (200 μg PLP/injection) on both the right and left hind-flank (day 0) using a 26G needle. […]
(§1) Mice were routinely visually scored for behavioral abnormalities on a scale from 0-5; 0-no abnormality, 1-partial loss of tail tonicity (partial limp tail), 2-loss of tail tonicity and hind-limb weakness 3-unsteady gait and partial hind-limb paralysis, 4-complete hind-limb paralysis and 5-moribund or dead. […] Allodynia was measured by the Von Frey hairs method as described earlier. […]
To determine surface expression of CD4 (Helper T cells), CD8 (killer T cells), CD25 (activated helper T cells and regulatory T cells), CD45 (macrophage and microglial cells) and F4/80 (macrophage and microglial cells) 5×10^5 cells/100 μL FACS buffer (PBS, 0.02% sodium azide [Sigma-Aldrich] and 2% bovine serum albumin) were incubated with appropriate antibodies from BD biosciences, Mountain View, Calif. […] Expression was analyzed (FACSCalibur with CellQuest software; BD Biosciences, Mountain View, Calif.).
A general note: In flow cytometry, cells or beads pass a laser one at a time.

For experiment [2], the system named is PLP-induced model of relapsing remitting EAE. As to the kind of experiment: Proteolipid-induced relapsing-remitting EAE in mice: clinical score and pain.
Text: The mouse model of experimental autoimmune encephalomyelitis (EAE) has been used extensively to understand the mechanisms underlying the immunopathogenesis of MS. […] Components of the immune system including T cells, macrophage, and antibodies are important contributors to myelin destruction in EAE mice. Further, inflammation also gives rise to multifocal regions demyelination culminating in clinical signs of neurologic dysfunction that include loss of tail tone, abnormal gait and partial-to-complete hind-limb paralysis. PLP-induced EAE model offers the ability to simultaneously investigate the pathogenic mechanisms of CNS inflammation and demyelination and MS-associated pain, a multi-targeted concept that we have optimized here at Allergan. Using sterile technique proteolipid protein myelin peptide (PLP) (139-159: […]) is mixed 1:1 with incomplete Freund's adjuvant (IFA) (Final concentration of 2 mg/ml PLP). 8-10 week old Female SJL mice (Taconic) are injected subcutaneously with 100 μl PLP/IFA (200 μg PLP/injection) on both the right and left hind-flank (day 0) using a 26G needle. Mice immunized using this protocol experience a relapsing-remitting clinical course with episodes of motor impairment interspersed with periods of remission/clinical improvement. Furthermore, these mice display a robust pain phenotype that is most pronounced during periods of clinical remission.
Using this protocol, the onset of PLP-induced EAE in SJL mice occurs at an incidence of (˜90-100%) and is generally apparent by ˜12 days post-immunization, reaching peak disease by 14-21 days. PLP-EAE mice show physical symptoms of neurologic impairment, progressing from partial loss of tail tonicity to partial-to-complete hind-limb paralysis. Up to 75% of the mice will experience a relapsing-remitting clinical course with periods of remission flanked by episodes of motor impairment (hind-limb weakness and paralysis). Histologically, mice display extensive inflammation within white matter tracts (areas containing myelinated axons) of the brain and spinal cord, progressive infiltration and accumulation of inflammatory cells, demyelination and axonal loss. Mice with severe EAE show extensive cellular infiltrates, widespread foci of demyelination. PLP-immunized mice typically display the most severe clinical disease during the first episode of neurologic impairment (days 14-21). […]
as §1

In experiment [3] the test system is goblet cells and T cells in the conjunctiva. Kind of experiment: Dry eye desiccating stress in mice, therapeutic mode, conjunctiva histology. As to conditions: 3 mg/kg/day via osmotic minipump, mice previously exposed to blower, comparable to Cyclosporine A, FIG. 12. The text has this: C57BL/6 (C57BL/6NTac) and B6.Cg/NTac-Foxn1nuNE9 were purchased from Taconic, Inc. (Germantown, N.Y.). Mice were used at 6-10 weeks of age. Animal studies approval was obtained from the Allergan Animal Care and Use Committee. All studies adhered to the Association for Research in Vision and Ophthalmology statement for the Use of Animals in Ophthalmic and Vision Research. As described in the literature dry eye was induced by treating mice with subcutaneous injections of scopolamine hydrobromide (0.5 mg/0.2 ml; Sigma-Aldrich, St. Louis, Mo.) three times a day alternating between the left and right flanks (Neiderkorn et al, 2006). Mice were placed in a cage containing perforated plastic screens on each side of the cage to permit airflow from fans (one fan on each side of the cage) for 16 hr/day in a hood (AirClean Systems, Raleigh, N.C.). Room humidity was kept below 40%. Desiccating stress (DS) was induced for 10 consecutive days. Spleens and cervical lymph nodes (CLN) were collected from mice subjected to DS and NS, and one donor-equivalent of either spleen or CLN CD4+ cells was transferred i.p. to syngeneic nude mice. One splenic equivalent of T cells was equal to 5×10^7 cells. Three days later samples were collected for analysis. For tear collection, 1.5 μL of PBS was placed on each eye, and then 1 μL of tear was collected from both eyes and placed in 8 μL of cytokine assay buffer (Beadlyte; Millipore, Billerica, Mass.). Buffer and tear fluid were collected by capillary action using a 1 μL volume glass capillary tube (Drummond Scientific, Broomhall, Pa.) that was placed in the tear meniscus of the lateral canthus. Samples were frozen at −80° C. until the time of assay. Histological analysis was done by staining […] samples with antibody to CD4 and H&E staining to quantify goblet cells and T cells in the conjunctiva. To test the compounds in a therapeutic mode, the animals were exposed to the desiccating stress for two weeks and then allowed to rest for 7 days in regular housing cages. The animals were then re-exposed to desiccating stress for an additional 7 days to mimic relapsing form of chronic dry eye disease. Drug treatment with Compound B was started 2 days before re-exposure to desiccating stress. In both the studies Compound B was dosed at 3 mg/kg/day. Adoptive transfer, tear cytokine analysis and histological analysis were performed as described above.

The mark [4] stands for this setting: mice immunized with proteolipid protein, 3 mg/kg/day by osmotic minipump, FIG. 3.

For the molecule `CCC1=CC(Cc2c[nH]cn2)CCC1` (centres unmarked) [Compound B], the “presence of immune cells in the CNS” value in experiment [1] (flow cytometry at the end of the study, FIG. 5) is “significantly reduced”. Besides, the Treg number entry in experiment [1] (setting [4]) is recorded as “selectively boosted”. Besides, the pain entry in experiment [2] (setting [4]) is “reduced”. Also, the “symptoms of MS (clinical course of disease)” value in experiment [2] (treatment during the development of clinical disease, FIG. 4) is given as “significant effect on attenuating symptoms”. Moreover, the “clinical score during relapses on days 14 (p<0.01) and 24” value in experiment [2] (treatment from days 7-10) is reported as “reduced”. In addition, in experiment [3], the “T cell infiltration into the conjunctiva” value is “significantly prevented” and the goblet cell loss entry is on record as “significantly prevented”.
Regarding `Clc1cccc(CNC2=NCCN2)c1Cl` [Compound C], the “frequency of regulatory T cells (CD4+CD25hiFoxP3+) in the spinal cord” value in experiment [1] (flow cytometry on day 37, FIG. 7) was “increased”. The “clinical score compared to vehicle-treated mice from days 13-24” value in experiment [2] (TID oral dosing (3 mg/kg/day) from day 7-13, FIG. 6) was “significantly reduced”. In experiment [3], the “T cell infiltration into the conjunctiva” value was “significantly reduced” and the goblet cell loss entry is “significantly reduced”.
